# According to patent publication US8933122B2, “Use of cationic surfactants as sporicidal agents” (Laboratorios Miret, S.A., priority 2008, dated 2015):
# Columns and labels:
# [1] = tested on: endospores from Bacillus subtilis ATCC 6633; test: Sporicidal activity, quantitative suspension test EN 13704:2002 (Example 1); type: cell-based; details: 20° C.; for Test of LAE sporicidal activity (Na), surviving spores count: 0.3% bovine serum albumin, N 1.8 × 10^7 cfu/mL
# Experimental: The determination of the sporicidal activity of LAE has been carried out according to the European standard EN 13704:2002 “Chemical disinfectant—Quantitative suspension test for the evaluation of sporicidal activity of chemical disinfectants used in food, industrial, domestic and institutional areas—Test method and requirements”.
# A test suspension containing endospores from Bacillus subtilis ATCC 6633 was prepared from a culture grown on a nutrient agar, to which additional sporulation enhancement ingredients were added. Plates were harvested with sterile water and endospores were purified by repeated centrifugations and resuspensions in water.
# Neutralizer. The neutralizer mixture consisted of 12.7% polysorbate 80, 6.0% Tamol® SN (brand of sodium salt of naphthalene-formaldehyde condensate), 1.7% lecithin, 1% peptone and 0.1% cystine. The solution was intended to neutralize any chemicals so that these would not affect subsequent growth of the bacteria.
# The sporicidal activity of a given product is defined by its capacity to reduce at least by 10^3 the amount of Bacillus subtilis bacterial spores in suspension, in the conditions established in the method.
# The product was in contact with a suspension of bacterial spores during an established period of time of 60 minutes. An interfering substance can be added to the suspension, in this case 0.3% bovine serum albumin in distilled water. Next, the effect of the product is neutralized by adding a neutralizer previously chosen, preceding to the surviving spores count.
# • 1. Spore suspension obtained from a spored-form culture of Bacillus subtilis. • 2. Count of the spore suspension of Bacillus subtilis. • 3. The possible toxic effect of the neutralizer on the spores in the absence of the product is valued. • 4. Evaluation of the neutralizing effect of the neutralizer over the product. • 4. Evaluation of the inhibitory effect of the product. • 5. Result calculation. Results: Results are expressed as the reduction of viability of the spore suspension in regards to:
# Tabulation of the Method and Test Validation Results (at 20° C.):
# The sporicidal activity is calculated as follows: R=N×0.1/Na N is cfu/mL of the spore suspension. Na is cfu/mL of the sporicidal activity. The calculated reduction of a solution of: • 50 ppm of LAE is R=3.5×10^2 cfu/mL • 100 ppm of LAE is R=3.4×10^2 cfu/mL • 150 ppm of LAE is R=4.3×10^2 cfu/mL • 250 ppm of LAE is R>10^3 cfu/mL
# A product is considered sporicidal if its use results in a reduction in the number of Bacillus subtilis bacterial spores equal or above 10^3 after being in contact for 60 minutes in the conditions set in […].
# [2] = tested on: Arthrobacter oxydans ATCC 8010; details: Gram + Bacteria; cited from earlier work
# [3] = tested on: Bacillus cereus var mycoide ATCC 11778; details: Gram + Bacteria; cited from earlier work
# [4] = tested on: Bacillus subtilis ATCC 6633; details: Gram + Bacteria; cited from earlier work
# [5] = tested on: Listeria monocytogenes ATCC 7644; details: Gram + Bacteria; cited from earlier work
# [6] = tested on: Staphylococcus aureus ATCC 6538; details: Gram + Bacteria; cited from earlier work
# [7] = tested on: Micrococcus luteus ATCC 9631; details: Gram + Bacteria; cited from earlier work
# [8] = tested on: Lactobacillus delbrueckii ssp lactis CECT 372; details: Gram + Bacteria; cited from earlier work
# [9] = tested on: Leuconostoc mesenteroides CETC 912; details: Gram + Bacteria; cited from earlier work
# [10] = tested on: Alcaligenes faecalis ATCC 8750; details: Gram − Bacteria; cited from earlier work
# [11] = tested on: Bordetella bronchiseptica ATCC 4617; details: Gram − Bacteria; cited from earlier work
# [12] = tested on: Escherichia coli ATCC 8739; details: Gram − Bacteria; cited from earlier work
# [13] = tested on: Escherichia coli 0157H7; details: Gram − Bacteria; cited from earlier work
# [14] = tested on: Klebsiella pneumoniae var pneumoniae CECT 178; details: Gram − Bacteria; cited from earlier work
# [15] = tested on: Mycobacterium phlei ATCC 41423; details: listed under Gram − Bacteria; cited from earlier work
# [16] = tested on: Gliocadium virens ATCC 4645; details: Fungi; cited from earlier work
# [17] = tested on: Penicillium funiculosum CECT 2914; details: Fungi; cited from earlier work
# [18] = tested on: Candida albicans ATCC 10231; details: Yeast; cited from earlier work
# [19] = tested on: Rhodotorula rubra CECT 1158; details: Yeast; cited from earlier work
# [20] = rats; cited from earlier work
# [21] = animals and humans; cited from earlier work
# [22] = human beings; cited from earlier work
compound,measurement,setting,value
"CCCCCCCCCCCC(=O)N[C@@H](CCCN=C(N)N)C(=O)OCC.Cl [LAE, ethyl ester of the lauramide of the arginine monohydrochloride]",calculated reduction R=N×0.1/Na,"[1]; 50 ppm of LAE, 60 minutes",3.5×10^2 cfu/mL
same,calculated reduction R=N×0.1/Na,"[1]; 100 ppm of LAE, 60 minutes",3.4×10^2 cfu/mL
same,calculated reduction R=N×0.1/Na,"[1]; 150 ppm of LAE, 60 minutes",4.3×10^2 cfu/mL
same,calculated reduction R=N×0.1/Na,"[1]; 250 ppm of LAE, 60 minutes",> 10^3 cfu/mL
same,concentration displaying sporicidal activity (reduction equal or above 10^3),"[1]; 60 minutes contact, EN 13704",≥ 250 ppm
same,LAE concentration from which there is inhibition of spore germination,[1]; 60 minutes,≥ 50 ppm
same,"Test of LAE sporicidal activity (Na), surviving spores count","[1]; LAE 12.5 μg/mL, 60 minutes contact",>300 cfu/mL
same,"Test of LAE sporicidal activity (Na), surviving spores count","[1]; LAE 25 μg/mL, 60 minutes contact",>300 cfu/mL
same,"Test of LAE sporicidal activity (Na), surviving spores count","[1]; LAE 50 μg/mL, 60 minutes contact",5.2 × 10^3 cfu/mL
same,"Test of LAE sporicidal activity (Na), surviving spores count","[1]; LAE 100 μg/mL, 60 minutes contact",5.3 × 10^3 cfu/mL
same,"Test of LAE sporicidal activity (Na), surviving spores count","[1]; LAE 150 μg/mL, 60 minutes contact",4.2 × 10^3 cfu/mL
same,"Test of LAE sporicidal activity (Na), surviving spores count","[1]; LAE 250 μg/mL, 60 minutes contact",No
same,"Test of LAE sporicidal activity (Na), surviving spores count","[1]; LAE 300 μg/mL, 60 minutes contact",No
same,M.I.C.,[2],64 ppm
same,M.I.C.,[3],32 ppm
same,M.I.C.,[4],16 ppm
same,M.I.C.,[5],10 ppm
same,M.I.C.,[6],32 ppm
same,M.I.C.,[7],128 ppm
same,M.I.C.,[8],16 ppm
same,M.I.C.,[9],32 ppm
same,M.I.C.,[10],64 ppm
same,M.I.C.,[11],128 ppm
same,M.I.C.,[12],32 ppm
same,M.I.C.,[13],20 ppm
same,M.I.C.,[14],32 ppm
same,M.I.C.,[15],2 ppm
same,M.I.C.,[16],32 ppm
same,M.I.C.,[17],16 ppm
same,M.I.C.,[18],16 ppm
same,M.I.C.,[19],16 ppm
same,absorption and metabolism,[20],"fast absorption and metabolization into naturally-occurring amino acids and the fatty acid lauric acid, which are eventually excreted as carbon dioxide and urea"
same,toxicological finding,[21],completely harmless to animals and humans
same,tolerability and toxicity in practical use,[22],well tolerated and to display a very low toxicity to human beings
